According to patent US9932341B2, “Use of pyrazolopyrimidine derivatives for the treatment of PI3K-delta related disorders” (Incyte Corporation, priority 2013, dated 2018):

target: PI3Kδ (p110δ/p85α) (Homo sapiens (Human), UniProt O00329); assay: PI3Kδ Scintillation Proximity Assay (Example A3); format: biochemical; conditions: 20 μM ATP, 20 μM PIP2, 4 nM PI3Kδ, read-out: PI3Kδ SPA IC50
Method: [γ-^33P]ATP (10 mCi/mL) was purchased from PerkinElmer (Waltham, Mass.). […] PI3Kδ (p110δ/p85α) was purchased from Millipore (Bedford, Mass.). ATP, MgCl2, DTT, EDTA, MOPS and CHAPS were purchased from Sigma-Aldrich (St. Louis, Mo.). Wheat Germ Agglutinin (WGA) YSi SPA Scintillation Beads was purchased from GE healthcare life sciences (Piscataway, N.J.).
The kinase reaction was conducted in polystyrene 384-well matrix white plate from Thermo Fisher Scientific in a final volume of 25 μL. Inhibitors were first diluted serially in DMSO and added to the plate wells before the addition of other reaction components. The final concentration of DMSO in the assay was 0.5%. The PI3K assays were carried out at room temperature in 20 mM MOPS, pH 6.7, 10 mM MgCl2, 5 mM DTT and CHAPS 0.03%. Reactions were initiated by the addition of ATP, the final reaction mixture consisted of 20 μM PIP2, 20 μM ATP, 0.2 μCi [γ-^33P] ATP, 4 nM PI3Kδ. […] 25 mM EDTA, 400 μM ATP. The final concentration of SPA beads was 1.0 mg/mL. After the plate sealing, plates were shaken overnight at room temperature and centrifuged at 1800 rpm for 10 minutes, the radioactivity of the product was determined by scintillation counting on Topcount (PerkinElmer). IC50 determination was performed by fitting the curve of percent control activity versus the log of the inhibitor concentration using the GraphPad Prism 3.0 software.

Chain of PI3Kδ (p110δ/p85α) (O00329 whole entry): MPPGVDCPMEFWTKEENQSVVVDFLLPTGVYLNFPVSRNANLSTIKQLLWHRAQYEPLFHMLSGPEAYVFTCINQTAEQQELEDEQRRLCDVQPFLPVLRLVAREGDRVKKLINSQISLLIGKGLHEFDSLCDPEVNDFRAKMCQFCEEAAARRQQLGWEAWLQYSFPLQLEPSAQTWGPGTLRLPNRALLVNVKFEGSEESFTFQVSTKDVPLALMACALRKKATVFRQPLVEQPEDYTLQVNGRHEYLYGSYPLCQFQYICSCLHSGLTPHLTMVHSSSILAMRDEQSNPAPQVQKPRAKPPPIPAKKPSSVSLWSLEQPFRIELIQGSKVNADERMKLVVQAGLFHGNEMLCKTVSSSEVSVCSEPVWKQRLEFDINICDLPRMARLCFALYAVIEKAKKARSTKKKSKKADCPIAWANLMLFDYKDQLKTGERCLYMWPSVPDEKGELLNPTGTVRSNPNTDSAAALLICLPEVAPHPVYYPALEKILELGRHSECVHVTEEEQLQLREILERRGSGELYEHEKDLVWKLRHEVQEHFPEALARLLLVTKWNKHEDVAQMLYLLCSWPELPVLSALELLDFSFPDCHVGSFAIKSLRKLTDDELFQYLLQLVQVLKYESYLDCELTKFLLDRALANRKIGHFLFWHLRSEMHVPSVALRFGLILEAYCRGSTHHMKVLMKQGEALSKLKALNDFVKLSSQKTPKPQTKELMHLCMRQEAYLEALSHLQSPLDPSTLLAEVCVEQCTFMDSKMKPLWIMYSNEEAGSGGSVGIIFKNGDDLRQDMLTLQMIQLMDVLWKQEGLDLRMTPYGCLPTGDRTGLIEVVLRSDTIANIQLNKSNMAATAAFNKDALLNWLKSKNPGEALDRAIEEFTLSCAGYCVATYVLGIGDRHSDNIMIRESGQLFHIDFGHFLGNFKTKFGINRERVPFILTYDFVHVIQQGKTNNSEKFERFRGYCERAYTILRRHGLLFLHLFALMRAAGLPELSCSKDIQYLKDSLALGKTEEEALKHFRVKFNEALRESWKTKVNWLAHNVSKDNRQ
Chain of PI3Kδ (p110δ/p85α) (P27986 whole entry partner): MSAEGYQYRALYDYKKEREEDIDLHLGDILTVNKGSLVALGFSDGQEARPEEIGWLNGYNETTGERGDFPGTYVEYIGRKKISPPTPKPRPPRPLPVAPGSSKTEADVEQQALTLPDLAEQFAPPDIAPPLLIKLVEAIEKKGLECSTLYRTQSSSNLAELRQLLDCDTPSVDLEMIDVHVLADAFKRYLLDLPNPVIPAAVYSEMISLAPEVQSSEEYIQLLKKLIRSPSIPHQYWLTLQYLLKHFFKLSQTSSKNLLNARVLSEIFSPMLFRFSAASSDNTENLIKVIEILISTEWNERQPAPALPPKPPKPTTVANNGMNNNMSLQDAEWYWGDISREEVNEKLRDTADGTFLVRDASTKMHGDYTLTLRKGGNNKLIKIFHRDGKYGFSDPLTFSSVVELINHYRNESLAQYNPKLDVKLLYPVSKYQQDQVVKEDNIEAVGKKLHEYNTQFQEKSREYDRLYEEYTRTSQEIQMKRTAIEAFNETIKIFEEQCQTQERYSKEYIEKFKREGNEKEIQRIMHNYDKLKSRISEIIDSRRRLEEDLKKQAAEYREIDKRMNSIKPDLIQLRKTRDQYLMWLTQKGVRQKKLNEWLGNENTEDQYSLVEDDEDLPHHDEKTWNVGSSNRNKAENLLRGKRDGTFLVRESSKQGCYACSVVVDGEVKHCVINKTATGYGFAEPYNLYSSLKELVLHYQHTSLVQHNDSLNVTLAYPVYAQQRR

| IC50 | Structure (SMILES) |
| --- | --- |
| < 10 nM | COc1c(C(C)n2nc(C)c3c(N)ncnc32)cc(Cl)c(C#N)c1C1CNC1 (single isomer, unassigned) [Example 261, 4-[1-(4-Amino-3-methyl-1H-pyrazolo[3,4-d]pyrimidin-1-yl)ethyl]-2-azetidin-3-yl-6-chloro-3-methoxybenzonitrile] |
| < 10 nM | COc1c(C(C)n2nc(C)c3c(N)ncnc32)cc(Cl)c(C#N)c1C1CN(C)C1 (single isomer, unassigned) [Example 262, 4-[1-(4-Amino-3-methyl-1H-pyrazolo[3,4-d]pyrimidin-1-yl)ethyl]-6-chloro-3-methoxy-2-(1-methylazetidin-3-yl)benzonitrile] |
| < 10 nM | COc1c(C(C)n2nc(C)c3c(N)ncnc32)cc(Cl)c(C#N)c1C1CN(CCO)C1 (single isomer, unassigned) [Example 268, 4-[1-(4-Amino-3-methyl-1H-pyrazolo[3,4-d]pyrimidin-1-yl)ethyl]-6-chloro-2-[1-(2-hydroxyethyl)azetidin-3-yl]-3-methoxybenzo nitrile] |
| < 10 nM | COc1c(C(C)n2nc(C)c3c(N)ncnc32)cc(Cl)c(C#N)c1C1CN(C(C)=O)C1 (single isomer, unassigned) [Example 281, 2-(1-Acetylazetidin-3-yl)-4-[1-(4-amino-3-methyl-1H-pyrazolo[3,4-d]pyrimidin-1-yl)ethyl]-6-chloro-3-methoxybenzonitrile] |
| < 10 nM | COc1c(C(C)n2nc(C)c3c(N)ncnc32)cc(Cl)c(C#N)c1C1CN(S(C)(=O)=O)C1 (single isomer, unassigned) [Example 285, 4-[1-(4-Amino-3-methyl-1H-pyrazolo[3,4-d]pyrimidin-1-yl)ethyl]-6-chloro-3-methoxy-2-[1-(methylsulfonyl)azetidin-3-yl]benzonitrile] |
| < 10 nM | COC(=O)N1CC(c2c(C#N)c(Cl)cc(C(C)n3nc(C)c4c(N)ncnc43)c2OC)C1 (single isomer, unassigned) [Example 289, Methyl 3-{3-[1-(4-amino-3-methyl-1H-pyrazolo[3,4-d]pyrimidin-1-yl)ethyl]-5-chloro-6-cyano-2-methoxyphenyl}azetidine-1-carboxylate] |
| < 10 nM | COc1c(C(C)n2nc(C)c3c(N)ncnc32)cc(Cl)c(C#N)c1C1CN(C(=O)NC(C)(C)C)C1 (single isomer, unassigned) [Example 292, 3-{3-[1-(4-Amino-3-methyl-1H-pyrazolo[3,4-d]pyrimidin-1-yl)ethyl]-5-chloro-6-cyano-2-methoxyphenyl}-N-(tert-butyl)azetidine-1-carboxamide] |
| < 10 nM | COc1c(C(C)n2nc(C)c3c(N)ncnc32)cc(Cl)c(C#N)c1C1CN(C(N)=O)C1 (single isomer, unassigned) [Example 293, 3-{3-[1-(4-Amino-3-methyl-1H-pyrazolo[3,4-d]pyrimidin-1-yl)ethyl]-5-chloro-6-cyano-2-methoxyphenyl}azetidine-1-carboxamide] |
| < 10 nM | COc1c(C(C)n2nc(C)c3c(N)ncnc32)cc(Cl)c(C#N)c1C1CN(C(=O)N(C)C)C1 (single isomer, unassigned) [Example 296, 3-{3-[1-(4-Amino-3-methyl-1H-pyrazolo[3,4-d]pyrimidin-1-yl)ethyl]-5-chloro-6-cyano-2-methoxyphenyl}-N,N-dimethylazetidine-1-carboxamide] |
| < 10 nM | CCOc1c(C(C)n2cc(C)c3c(N)ncnc32)cc(Cl)c(C#N)c1C1CN(C(C)C)C1 (single isomer, unassigned) [Example 307, 4-[1-(4-Amino-5-methyl-7H-pyrrolo[2,3-d]pyrimidin-7-yl)ethyl]-6-chloro-3-ethoxy-2-(1-isopropylazetidin-3-yl)benzonitrile] |
| < 10 nM | COc1c(C(C)n2nc(C)c3c(N)ncnc32)cc(C)c(C#N)c1C1CN(C[C@H](C)O)C1 (single isomer, unassigned) [Example 315] |
| > 500 nM | CCOc1c(C(C)n2nc(C)c3c(N)ncnc32)cc(Cl)c(F)c1C1COC(=O)N1 (single isomer, unassigned) [Example 353, 4-{3-[1-(4-amino-3-methyl-1H-pyrazolo[3,4-d]pyrimidin-1-yl)ethyl]-5-chloro-2-ethoxy-6-fluorophenyl}-1,3-oxazolidin-2-one] |
| < 10 nM | CCOc1c(C(C)n2nc(C)c3c(N)ncnc32)cc(Cl)c(F)c1C1COC(=O)N1 (single isomer, unassigned) [Example 354, 4-{3-[1-(4-amino-3-methyl-1H-pyrazolo[3,4-d]pyrimidin-1-yl)ethyl]-5-chloro-2-ethoxy-6-fluorophenyl}-1,3-oxazolidin-2-one] |
| 50 to 200 nM | CCOc1c(C(C)n2nc(C)c3c(N)ncnc32)cc(Cl)c(F)c1C1CNC(=O)O1 (single isomer, unassigned) [Example 355, 5-{3-[1-(4-amino-3-methyl-1H-pyrazolo[3,4-d]pyrimidin-1-yl)ethyl]-5-chloro-2-ethoxy-6-fluorophenyl}-1,3-oxazolidin-2-one] |
| 50 to 200 nM | CCOc1c(C(C)n2nc(C)c3c(N)ncnc32)cc(Cl)c(F)c1C1CNC(=O)O1 (single isomer, unassigned) [Example 356, 5-{3-[1-(4-amino-3-methyl-1H-pyrazolo[3,4-d]pyrimidin-1-yl)ethyl]-5-chloro-2-ethoxy-6-fluorophenyl}-1,3-oxazolidin-2-one] |
| < 10 nM | COc1c(C(C)n2nc(C)c3c(N)ncnc32)cc(Cl)c(C)c1C1CN(CC(C)O)C1 (stereo in doubt) [Example 102, (2S)-1-(3-{3-[1-(4-Amino-3-methyl-1H-pyrazolo[3,4-d]pyrimidin-1-yl)ethyl]-5-chloro-2-methoxy-6-methylphenyl}azetidin-1-yl)propan-2-ol] |
| < 10 nM | COc1c(C(C)n2nc(C)c3c(N)ncnc32)cc(Cl)c(F)c1C1CN(C[C@H](C)O)C1 (stereo partly drawn) [68 (1st peak), (2S)-1-(3-{3-[1-(4-Amino-3-methyl-1H-pyrazolo[3,4-d]pyrimidin-1-yl)ethyl]-5-chloro-6-fluoro-2-methoxyphenyl}azetidin-1-yl)propan-2-ol] |
| < 10 nM | CCOc1c(C(C)n2nc(C)c3c(N)ncnc32)cc(Cl)c(F)c1C1CN(C(C)C)C1 (stereo not drawn) [139 (1st peak), 1-{1-[5-Chloro-2-ethoxy-4-fluoro-3-(1-isopropylazetidin-3-yl)phenyl]ethyl}-3-methyl-1H-pyrazolo[3,4-d]pyrimidin-4-amine] |
| < 10 nM | CCN1CC(c2c(Cl)c(Cl)cc(C(C)n3nc(C)c4c(N)ncnc43)c2OC)C1 (stereo not drawn) [298 (1st peak), 1-{1-[4,5-Dichloro-3-(1-ethylazetidin-3-yl)-2-methoxyphenyl]ethyl}-3-methyl-1H-pyrazolo[3,4-d]pyrimidin-4-amine] |
| < 10 nM | CCOc1c(C(C)n2nc(C)c3c(N)ncnc32)cc(Cl)c(C#N)c1C1CNC(=O)O1 (stereo not drawn) [323 (1st peak), 4-[1-(4-amino-3-methyl-1H-pyrazolo[3,4-d]pyrimidin-1-yl)ethyl]-6-chloro-3-ethoxy-2-(2-oxo-1,3-oxazolidin-5-yl)benzonitrile] |

| Structure (SMILES) | IC50 |
| --- | --- |
| CCOc1c(C(C)n2nc(C)c3c(N)ncnc32)cc(Cl)c(F)c1C1CNC(=O)C1 (single isomer, unassigned) [Example 346, 4-{3-[1-(4-amino-3-methyl-1H-pyrazolo[3,4-d]pyrimidin-1-yl)ethyl]-5-chloro-2-ethoxy-6-fluorophenyl}pyrrolidin-2-one] | < 10 nM |
